Like-named read-outs stand apart in the source and are kept apart here.
Legend:
Nav1.5 = molecular target: T1, Nav1.5 (Homo sapiens, UniProt Q14524); assay: Patch clamp testing, Nav1.5 ion channel inhibition (SyncroPatch 384PE); format: cell-based
T1 construct: ChanTest Corp; host or cells: CHO cells (Chinese hamster)
Experimental: Cells were cultured in Ham's F-12 medium supplemented with 10% fetal bovine serum, 100 U/mL penicillin G sodium, 100 μg/mL streptomycin sulfate, and 500 μg/mL G418 aminoglycoside antibiotic.
(§1) Each compound was analyzed at concentrations of 1000 μM, 300 μM, 100 μM, 30 μM, 10 μM, 3 μM, 1 μM, and 0.3 μM. […] All tested compound formulations contained 0.3% DMSO. Each concentration of each compound was loaded into a well of a 384-well polypropylene compound plate using an automated liquid handling system (Integra Assist Plus, Integra) and then placed in the plate well of SyncroPatch 384PE (SP384PE; Nanion Technologies, Livingston, NJ) immediately before application of the cells.

Nav1.7 = molecular target: T2, Nav1.7 (Homo sapiens, UniProt Q15858); assay: Patch clamp testing, Nav1.7 ion channel inhibition (SyncroPatch 384PE); format: cell-based
T2 construct: ChanTest Corp; host or cells: CHO cells (Chinese hamster)
T2 sequence (Q15858 whole entry): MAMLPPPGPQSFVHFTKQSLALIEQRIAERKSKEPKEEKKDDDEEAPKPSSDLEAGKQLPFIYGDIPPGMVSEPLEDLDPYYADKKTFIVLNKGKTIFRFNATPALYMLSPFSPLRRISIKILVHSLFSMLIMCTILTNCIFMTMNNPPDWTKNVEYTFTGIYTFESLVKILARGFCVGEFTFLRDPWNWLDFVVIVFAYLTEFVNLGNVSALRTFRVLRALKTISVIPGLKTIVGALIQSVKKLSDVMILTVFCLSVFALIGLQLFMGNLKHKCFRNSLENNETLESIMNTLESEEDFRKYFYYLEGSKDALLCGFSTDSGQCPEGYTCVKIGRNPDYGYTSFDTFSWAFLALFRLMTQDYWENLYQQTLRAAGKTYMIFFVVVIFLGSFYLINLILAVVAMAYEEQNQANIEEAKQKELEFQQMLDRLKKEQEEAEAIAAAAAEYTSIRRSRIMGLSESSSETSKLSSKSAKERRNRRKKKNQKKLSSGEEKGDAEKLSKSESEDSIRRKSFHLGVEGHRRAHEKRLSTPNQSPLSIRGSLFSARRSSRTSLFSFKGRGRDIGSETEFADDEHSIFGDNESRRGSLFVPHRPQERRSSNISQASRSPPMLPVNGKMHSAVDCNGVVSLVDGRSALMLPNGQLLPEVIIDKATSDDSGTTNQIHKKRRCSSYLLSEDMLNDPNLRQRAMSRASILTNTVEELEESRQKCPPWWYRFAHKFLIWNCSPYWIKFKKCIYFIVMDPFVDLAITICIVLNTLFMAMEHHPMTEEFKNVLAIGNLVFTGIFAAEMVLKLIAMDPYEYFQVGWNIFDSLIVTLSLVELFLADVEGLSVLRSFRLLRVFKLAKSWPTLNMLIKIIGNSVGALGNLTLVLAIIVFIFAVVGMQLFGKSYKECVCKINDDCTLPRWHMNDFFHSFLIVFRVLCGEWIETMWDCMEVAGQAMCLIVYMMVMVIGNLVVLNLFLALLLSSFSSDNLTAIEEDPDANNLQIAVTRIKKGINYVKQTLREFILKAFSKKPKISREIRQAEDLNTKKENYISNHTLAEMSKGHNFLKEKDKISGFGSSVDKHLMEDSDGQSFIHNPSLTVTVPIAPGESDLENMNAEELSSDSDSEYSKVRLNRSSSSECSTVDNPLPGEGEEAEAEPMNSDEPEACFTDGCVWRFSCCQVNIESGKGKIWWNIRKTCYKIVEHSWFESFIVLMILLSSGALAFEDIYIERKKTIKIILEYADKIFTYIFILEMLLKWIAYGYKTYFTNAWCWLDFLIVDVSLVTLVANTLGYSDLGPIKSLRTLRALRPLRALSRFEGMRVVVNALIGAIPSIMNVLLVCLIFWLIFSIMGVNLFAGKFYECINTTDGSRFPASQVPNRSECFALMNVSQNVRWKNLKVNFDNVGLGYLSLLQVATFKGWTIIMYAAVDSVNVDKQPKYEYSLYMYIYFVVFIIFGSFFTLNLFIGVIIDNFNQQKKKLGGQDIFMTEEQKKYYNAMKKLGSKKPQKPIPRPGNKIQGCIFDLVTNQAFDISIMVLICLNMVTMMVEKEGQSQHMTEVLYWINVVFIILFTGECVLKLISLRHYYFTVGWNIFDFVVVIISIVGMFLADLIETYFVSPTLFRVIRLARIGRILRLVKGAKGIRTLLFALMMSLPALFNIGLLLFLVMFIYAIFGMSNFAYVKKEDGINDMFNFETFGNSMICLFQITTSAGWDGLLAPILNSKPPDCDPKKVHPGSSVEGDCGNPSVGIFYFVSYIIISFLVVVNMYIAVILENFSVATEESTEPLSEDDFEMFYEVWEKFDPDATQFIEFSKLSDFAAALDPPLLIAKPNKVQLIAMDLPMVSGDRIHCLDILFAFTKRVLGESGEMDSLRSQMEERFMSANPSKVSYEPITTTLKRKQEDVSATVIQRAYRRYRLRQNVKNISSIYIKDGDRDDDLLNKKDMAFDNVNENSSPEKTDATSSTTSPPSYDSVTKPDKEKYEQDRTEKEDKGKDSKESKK
Experimental: An examination of the in vitro effects of the compounds consistent with the present disclosure on ion channels Nav1.5 (a sodium voltage-gated channel alpha subunit found predominantly in cardiac muscle cells) and Nav1.7 (a sodium voltage-gated channel alpha subunit normally expressed in high levels in nociceptive pain neurons at dorsal root ganglion (DRG) and trigeminal ganglion and in sympathetic ganglion neurons) was performed using adult epithelial (ovarian) tissue CHO cells of Chinese hamsters (C. griseus) […] transfected with human ion channel cDNAs (ATCC, Manassas, VA; ChanTest Corp., Cleveland, OH). Cells were cultured in Ham's F-12 medium supplemented with 10% fetal bovine serum, 100 U/mL penicillin G sodium, 100 μg/mL streptomycin sulfate, and 500 μg/mL G418 aminoglycoside antibiotic.
as §1
Observed IC50 values of the channel current inhibition for each test article are provided in Table 8 (Nav1.5 ion channel inhibition) and Table 9 (Nav1.7 ion channel inhibition).

[1] = Inhibition of Nav1.5 Ion Channel IC50, TP1A, TP1A = Tonic Block, CHO cells transfected with human ion channel cDNA, 0.3% DMSO
[2] = Inhibition of Nav1.5 Ion Channel IC50, TP2A, TP2A = Inactivated State-Dependent Block, CHO cells transfected with human ion channel cDNA, 0.3% DMSO
[3] = Inhibition of Nav1.5 Ion Channel IC50, TP25B, TP25B = Use-Dependent Block, CHO cells transfected with human ion channel cDNA, 0.3% DMSO
[4] = TP1A = Tonic Block, CHO cells transfected with human ion channel cDNA, 0.3% DMSO, read-out: Inhibition of Nav1.7 Ion Channel IC50, TP1A
[5] = TP2A = Inactivated State-Dependent Block, CHO cells transfected with human ion channel cDNA, 0.3% DMSO, read-out: Inhibition of Nav1.7 Ion Channel IC50, TP2A
[6] = TP25B = Use-Dependent Block, CHO cells transfected with human ion channel cDNA, 0.3% DMSO, read-out: Inhibition of Nav1.7 Ion Channel IC50, TP25B
[7] = read-out: Inhibition of Nav1.7 Ion Channel IC50, TP25B, TP25B = Use-Dependent Block, CHO cells transfected with human ion channel cDNA, 0.3% DMSO

T1 sequence (Q14524 whole entry): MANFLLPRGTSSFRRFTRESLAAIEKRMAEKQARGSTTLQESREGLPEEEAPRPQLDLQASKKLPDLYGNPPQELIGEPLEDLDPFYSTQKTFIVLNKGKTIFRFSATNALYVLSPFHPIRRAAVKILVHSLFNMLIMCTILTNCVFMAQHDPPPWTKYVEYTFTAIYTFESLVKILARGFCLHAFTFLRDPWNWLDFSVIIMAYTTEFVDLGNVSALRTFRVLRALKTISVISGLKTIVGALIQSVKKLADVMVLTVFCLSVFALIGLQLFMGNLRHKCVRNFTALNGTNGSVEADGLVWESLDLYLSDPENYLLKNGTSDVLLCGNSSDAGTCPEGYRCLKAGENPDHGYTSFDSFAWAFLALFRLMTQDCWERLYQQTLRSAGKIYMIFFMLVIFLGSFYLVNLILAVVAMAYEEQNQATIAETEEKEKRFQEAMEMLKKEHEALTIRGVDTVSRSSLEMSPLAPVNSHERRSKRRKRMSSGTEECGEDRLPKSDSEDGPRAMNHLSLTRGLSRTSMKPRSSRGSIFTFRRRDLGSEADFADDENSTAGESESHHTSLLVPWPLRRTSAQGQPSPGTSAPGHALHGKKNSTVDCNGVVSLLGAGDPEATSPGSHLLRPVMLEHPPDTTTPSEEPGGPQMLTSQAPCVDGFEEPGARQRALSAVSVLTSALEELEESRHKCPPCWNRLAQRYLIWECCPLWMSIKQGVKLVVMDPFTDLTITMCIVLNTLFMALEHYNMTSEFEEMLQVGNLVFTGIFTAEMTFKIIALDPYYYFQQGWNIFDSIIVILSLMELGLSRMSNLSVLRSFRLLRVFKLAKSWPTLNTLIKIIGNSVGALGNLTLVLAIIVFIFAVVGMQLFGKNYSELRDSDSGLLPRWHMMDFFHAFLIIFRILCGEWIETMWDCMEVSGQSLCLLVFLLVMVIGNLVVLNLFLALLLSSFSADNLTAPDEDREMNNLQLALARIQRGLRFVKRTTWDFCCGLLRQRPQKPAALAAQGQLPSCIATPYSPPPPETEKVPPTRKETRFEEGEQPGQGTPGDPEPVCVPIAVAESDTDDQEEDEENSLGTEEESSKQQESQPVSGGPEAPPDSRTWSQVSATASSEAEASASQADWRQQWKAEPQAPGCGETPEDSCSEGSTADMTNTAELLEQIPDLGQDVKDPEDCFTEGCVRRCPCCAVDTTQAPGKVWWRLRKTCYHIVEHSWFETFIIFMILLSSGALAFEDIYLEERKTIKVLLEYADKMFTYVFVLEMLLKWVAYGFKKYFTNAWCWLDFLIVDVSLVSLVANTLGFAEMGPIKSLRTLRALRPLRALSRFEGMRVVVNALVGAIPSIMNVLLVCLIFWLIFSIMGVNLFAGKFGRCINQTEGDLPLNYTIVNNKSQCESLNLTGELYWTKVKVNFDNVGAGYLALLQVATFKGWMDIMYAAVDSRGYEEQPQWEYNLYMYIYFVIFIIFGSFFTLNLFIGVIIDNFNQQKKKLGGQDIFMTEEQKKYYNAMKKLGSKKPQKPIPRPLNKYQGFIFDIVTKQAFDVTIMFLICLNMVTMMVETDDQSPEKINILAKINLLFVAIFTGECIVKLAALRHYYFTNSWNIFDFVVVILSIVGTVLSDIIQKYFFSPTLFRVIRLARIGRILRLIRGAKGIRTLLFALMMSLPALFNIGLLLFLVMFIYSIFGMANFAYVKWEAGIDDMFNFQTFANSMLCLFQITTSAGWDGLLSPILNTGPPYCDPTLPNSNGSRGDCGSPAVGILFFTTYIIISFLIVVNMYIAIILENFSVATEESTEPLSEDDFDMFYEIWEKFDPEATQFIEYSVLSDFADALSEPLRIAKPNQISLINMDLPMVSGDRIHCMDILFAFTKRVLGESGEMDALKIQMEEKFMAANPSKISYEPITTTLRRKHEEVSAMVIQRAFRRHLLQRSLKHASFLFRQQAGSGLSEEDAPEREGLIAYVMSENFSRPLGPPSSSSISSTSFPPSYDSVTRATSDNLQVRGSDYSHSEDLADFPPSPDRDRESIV

| SMILES | IC50 (Nav1.5; [1]) [µM] | IC50 (Nav1.5; [2]) [µM] | IC50 (Nav1.5; [3]) [µM] | IC50 (Nav1.7; [4]) [µM] | IC50 (Nav1.7; [5]) [µM] | IC50 (Nav1.7; [6]) [µM] | IC50 (Nav1.5) [µM] | IC50 (Nav1.7) [µM] | IC50 (Nav1.7; [7]) [µM] |
| --- | --- | --- | --- | --- | --- | --- | --- | --- | --- |
| COc1ccc(N(CCN(C)C)CC(=O)N(C)c2ccc(OC)cc2)cc1 [Compound 2294] | > 1000 | > 1000 | > 1000 | > 1000 | > 1000 | > 1000 |  |  |  |
| COc1ccc(N(C)C(=O)CN(CCN)c2ccccc2)cc1 [Compound 2302] | 124 | 96.8 | 75.9 | 70.2 | 77.9 | 55.4 |  |  |  |
| COc1ccc(N(C)C(=O)CN(CCN(C)C)c2cc(Cl)ccc2Cl)cc1 [Compound 2298] | 249 | 240 | 204 | 273 | 229 | 220 |  |  |  |
| COc1ccc(N(C)C(=O)CN(CCN2CCN(C)CC2)c2ccccc2)cc1 [Compound 2304] | > 1000 | 880 | 670 | > 1000 | > 1000 | > 1000 |  |  |  |
| COc1ccc(N(C)C(=O)CN(CCN(C)C)c2ccccc2)cc1 [Compound 2290] | > 1000 | > 1000 | > 1000 | > 1000 | > 1000 | > 1000 |  |  |  |
| COc1ccc(N(C)C(=O)CN(CCN(C)C)c2cccc(Cl)c2)cc1 [Compound 2291] | 808 | 740 | 693 | 561 | 463 | 490 |  |  |  |
| COc1ccc(N(C)C(=O)CN(CCN(C)C)c2ccc(F)c(Cl)c2)cc1 [Compound 2299] | 515 | 449 | 505 | 393 | 315 | 334 |  |  |  |
| COc1ccc(N(C)C(=O)CN(CCN2CCCCC2)c2ccccc2)cc1 [Compound 2303] | 16.6 | 13.5 | 9.5 | 15 | 14.5 | 13.1 |  |  |  |
| COc1ccc(N(C)C(=O)CN(CCN(C)C)c2cccc(OC(F)(F)F)c2)cc1 [Compound 2296] | 254 | 236 | 222 | 265 | 231 | 210 |  |  |  |
| COc1ccc(N(C)C(=O)CN(CCN(C)C)c2ccc(Cl)c(C(F)(F)F)c2)cc1 [Compound 2297] | 95.1 | 91.2 | 72.7 | 74.7 | 66.2 | 54.4 |  |  |  |
| COc1ccc(N(C)C(=O)CN(CCN(C)C)c2ccccc2C)cc1 [Compound 2295] |  | > 1000 | > 1000 | > 1000 |  |  | > 1000 | > 1000 | > 1000 |
| COc1ccc(N(C)C(=O)CN(CCN(C)C)c2ccccc2OC)cc1 [Compound 2293] |  | > 1000 | > 1000 | > 1000 |  |  | > 1000 | > 1000 | > 1000 |
| COc1ccc(N(C)C(=O)CN(CCN(C)C)c2cccc(Cl)c2F)cc1 [Compound 2300] | 327 | 307 | 259 | 546 | 673 | 626 |  |  |  |
| COc1ccc(N(C)C(=O)CN(CCN(C)C)c2ccc(Cl)c(Cl)c2)cc1 [Compound 2292] | 208 | 216 | 193 | 165 | 162 | 167 |  |  |  |
| CCN(CC)CC(=O)Nc1c(C)cccc1C [Lidocaine, reference compound] |  |  |  | 408 | 23.7 | 113 |  |  |  |
| COc1ccc(N(C)C(=O)CN(CCN(C)C)c2ccccc2C(F)(F)F)cc1 [Compound 2301] | 265 | 243 | 154 | 312 | 275 | 235 |  |  |  |

From patent US11806323B2, “Topical anesthetics” (PTC Innovations, LLC, priority 2022, dated 2023)
